From patent US20050222173A1, “Triazolopyrimidines” (priority 2002, published 2005) come the findings set out here.

Tested on in one series: not listed separately
In words: logP determination by HPLC (EEC Directive 79/831 Annex V. A8).
Settings: not given
Regarding `Nc1nnc(Br)[nH]1` [Example 185, 5-bromo-1,2,4-triazole-3-amine], the chromatographic logP (in general, lipophilicity estimated from chromatographic retention) was determined as 0.37.

Still in this series, the particulars now being: HPLC, gradient method, acetonitrile/0.1% aqueous phosphoric acid.
`CC1=CCCN(c2c(-c3c(F)cc(F)cc3F)c(Cl)nc3nc(Cl)nn23)C1` [Example 87]: the log.P amounted to 4.21.
The compound `CC1CCCN(c2c(-c3c(F)cc(F)cc3F)c(Cl)nc3nc(Cl)nn23)C1` (stereo not drawn) [Example 88] came in with a log.P of 4.45.
Same read-out and setting: to `Fc1cc(F)c(-c2c(Cl)nc3nc(Cl)nn3c2N2CCCCC2)c(F)c1` [Example 89] belongs 4.06; to `CC1CCN(c2c(-c3c(F)cc(F)cc3F)c(Cl)nc3nc(Cl)nn23)CC1` [Example 90], 4.45; to `CCC1=CCN(c2c(-c3c(F)cc(F)cc3F)c(Cl)nc3nc(Cl)nn23)CC1` [Example 91], 4.63.
On the same count and under the same terms, the figure for `CC1CCCN(c2c(-c3ccccc3Cl)c(Cl)nc3nc(Cl)nn23)C1` (stereo not drawn) [Example 92] is 4.64; for `CCC1=CCN(c2c(-c3ccccc3Cl)c(Cl)nc3nc(Cl)nn23)CC1` [Example 93] it is 4.87.
Regarding `CC(C)Nc1c(-c2c(F)cccc2Cl)c(Cl)nc2nc(Cl)nn12` [Example 94], the log.P is reported as 3.42.
For `CC(C)Nc1c(-c2ccc(F)cc2F)c(Cl)nc2nc(Cl)nn12` [Example 95], the log.P came to 3.31.
As to `CC(Nc1c(-c2ccc(F)cc2F)c(Cl)nc2nc(Cl)nn12)C(F)(F)F` (stereo not drawn) [Example 96], the log.P is 3.52.
`C[C@@H](Nc1c(-c2ccccc2Cl)c(Cl)nc2nc(Cl)nn12)C(F)(F)F` [Example 97] gave a log.P of 3.63.
On to `C[C@H](Nc1c(-c2c(F)cc(F)cc2F)c(Cl)nc2nc(Br)nn12)C(F)(F)F` [Example 99], for which the log.P is 3.59.
In the case of `C[C@H](Nc1c(-c2c(F)cccc2Cl)c(Cl)nc2nc(Cl)nn12)C(F)(F)F` [Example 100], the log.P stood at 3.6.
Still for that read-out and setting: to `CC(C)CNc1c(-c2ccc(F)cc2F)c(Cl)nc2nc(Cl)nn12` [Example 101] belongs 3.61; to `CCC(C)Nc1c(-c2ccc(F)cc2F)c(Cl)nc2nc(Cl)nn12` (stereo not drawn) [Example 102], 3.63.
`Fc1ccc(-c2c(Cl)nc3nc(Cl)nn3c2NC2CCCC2)c(F)c1` [Example 103] gave a log.P of 3.79.
The same measure, in the same setting: the figure for `COCCNc1c(-c2ccc(F)cc2F)c(Cl)nc2nc(Cl)nn12` [Example 104] is 2.82.
As to `Fc1ccc(-c2c(Cl)nc3nc(Cl)nn3c2NC2CC2)c(F)c1` [Example 105], the log.P is given as 3.01.
Regarding `Fc1ccc(-c2c(Cl)nc3nc(Cl)nn3c2NCC(F)(F)F)c(F)c1` [Example 106], the log.P was determined as 3.19.
The compound `Fc1ccc(-c2c(Cl)nc3nc(Cl)nn3c2NCC2CC2)c(F)c1` [Example 107] gave a log.P of 3.36.
Same read-out and setting: to `C=C(C)CNc1c(-c2ccc(F)cc2F)c(Cl)nc2nc(Cl)nn12` [Example 108] belongs 3.3; to `CC(C)CC(C)Nc1c(-c2ccc(F)cc2F)c(Cl)nc2nc(Cl)nn12` (stereo not drawn) [Example 109], 4.31; to `CN(C)CCN(C)c1c(-c2ccc(F)cc2F)c(Cl)nc2nc(Cl)nn12` [Example 110], 1.51.
For the compound `C#CCN(C)c1c(-c2ccc(F)cc2F)c(Cl)nc2nc(Cl)nn12` [Example 111], the log.P is listed as 3.21.
With `CN(CC1OCCO1)c1c(-c2ccc(F)cc2F)c(Cl)nc2nc(Cl)nn12` [Example 112], the log.P was 3.14.
Turning to `CN(Cc1ccco1)c1c(-c2ccc(F)cc2F)c(Cl)nc2nc(Cl)nn12` [Example 113], the log.P was determined as 3.69.
The compound `CC(C)CN(C)c1c(-c2ccc(F)cc2F)c(Cl)nc2nc(Cl)nn12` [Example 114] showed a log.P of 4.08.
As for `COCCN(C)c1c(-c2ccc(F)cc2F)c(Cl)nc2nc(Cl)nn12` [Example 115], the log.P amounted to 3.2.
Same read-out and setting: the figure for `C=C(C)CN(C)c1c(-c2ccc(F)cc2F)c(Cl)nc2nc(Cl)nn12` [Example 116] is 3.98; for `CCN(CCN(C)C)c1c(-c2ccc(F)cc2F)c(Cl)nc2nc(Cl)nn12` [Example 117] it is 1.65; for `C=C(C)CN(CC)c1c(-c2ccc(F)cc2F)c(Cl)nc2nc(Cl)nn12` [Example 118] it is 4.3.
Take `C=CCN(CC)c1c(-c2ccc(F)cc2F)c(Cl)nc2nc(Cl)nn12` [Example 119]: the log.P was determined as 3.95.
`CCN(Cc1ccco1)c1c(-c2ccc(F)cc2F)c(Cl)nc2nc(Cl)nn12` [Example 120] came in with a log.P of 3.98.
`CCN(CC1CCCO1)c1c(-c2ccc(F)cc2F)c(Cl)nc2nc(Cl)nn12` (stereo not drawn) [Example 121] had a log.P of 3.87.
Still for that read-out and setting: the figure for `CCN(CCOC)c1c(-c2ccc(F)cc2F)c(Cl)nc2nc(Cl)nn12` [Example 122] is 3.51; for `CCOC(=O)CN(CC)c1c(-c2ccc(F)cc2F)c(Cl)nc2nc(Cl)nn12` [Example 123] it is 3.61; for `CCCCN(CC)c1c(-c2ccc(F)cc2F)c(Cl)nc2nc(Cl)nn12` [Example 124] it is 4.5.
In the case of `CCN(CC)c1c(-c2ccc(F)cc2F)c(Cl)nc2nc(Cl)nn12` [Example 125], the log.P stood at 3.74.
Turning to `CCCN(CC1CC1)c1c(-c2ccc(F)cc2F)c(Cl)nc2nc(Cl)nn12` [Example 126], the log.P was 4.48.
As to `CCCN(CC1CCCO1)c1c(-c2ccc(F)cc2F)c(Cl)nc2nc(Cl)nn12` (stereo not drawn) [Example 127], the log.P was 4.29.
Turning to `CCCN(CCOC)c1c(-c2ccc(F)cc2F)c(Cl)nc2nc(Cl)nn12` [Example 128], the log.P amounted to 3.9.
The same measure, in the same setting: the figure for `Fc1cccc(Cl)c1-c1c(Cl)nc2nc(Cl)nn2c1N1CCSCC1` [Example 131] is 3.73; for `Fc1cccc(Cl)c1-c1c(Cl)nc2nc(Cl)nn2c1N1CCOCC1` [Example 132] it is 3.02; for `Fc1cccc(Cl)c1-c1c(Cl)nc2nc(Cl)nn2c1N1CCCC1` [Example 134] it is 3.54.
In turn, `CCCN(CCOC)c1c(-c2c(F)cccc2Cl)c(Cl)nc2nc(Cl)nn12` [Example 135] returned a log.P of 4.06.
`C=CCN(CC)c1c(-c2c(F)cccc2Cl)c(Cl)nc2nc(Cl)nn12` [Example 137] returned a log.P of 4.16.
Compound `CC(C)CNc1c(-c2c(F)cccc2Cl)c(Cl)nc2nc(Cl)nn12` [Example 139] showed a log.P of 3.74.
As for `Fc1cccc(Cl)c1-c1c(Cl)nc2nc(Cl)nn2c1NCC1CC1` [Example 143], the log.P is reported as 3.49.
`COCCN(C)c1c(-c2c(F)cccc2Cl)c(Cl)nc2nc(Cl)nn12` [Example 148] gave a log.P of 3.32.
The compound `CC(C)C(C)Nc1c(-c2ccccc2Cl)c(Cl)nc2nc(Br)nn12` (stereo not drawn) [Example 170] showed a log.P of 4.18.
As for `CC(C)C(C)Nc1c(-c2c(F)cc(F)cc2F)c(Cl)nc2nc(Cl)nn12` (stereo not drawn) [Example 171], the log.P came out at 4.01.
Take `CC(C)C(C)Nc1c(-c2c(F)cccc2Cl)c(Cl)nc2nc(Cl)nn12` (stereo not drawn) [Example 172]: the log.P was 4.09.
Compound `CC(C)C(C)Nc1c(-c2ccc(F)cc2F)c(Cl)nc2nc(Cl)nn12` (stereo not drawn) [Example 173] came in with a log.P of 3.96.
Still for that read-out and setting: the figure for `CC(C)C(C)Nc1c(-c2ccccc2Cl)c(Cl)nc2nc(Cl)nn12` (stereo not drawn) [Example 175] is 4.16.

Another series deals with Podosphaera leucotricha. In words: Podosphaera test (apple)/protective. It counts as in vivo. Conditions: Podosphaera leucotricha, 240 h, protective, application rate 100 g/ha, evaluation 10 days after inoculation, read-out: Efficacy in %. On the procedure: Podosphaera Test (Apple)/Protective [table] […] To test for protective activity, young plants are sprayed with the preparation of active compound at the stated application rate. After the spray coating has dried on, the plants are inoculated with an aqueous spore suspension of the apple mildew pathogen Podosphaera leucotricha. The plants are then placed in a greenhouse at about 23° C. and a relative atmospheric humidity of about 70%.
Consider `C[C@@H](Nc1c(-c2ccccc2Cl)c(Cl)nc2nc(Cl)nn12)C(F)(F)F` [drawing 32], for which the pest or weed control at 100 g/ha turned out to be 100%.
For the compound `C[C@@H](Nc1c(-c2c(F)cc(F)cc2F)c(Cl)nc2nc(Cl)nn12)C(F)(F)F` [drawing 33], the pest or weed control at 100 g/ha was determined as 100%.
With `CC(C)Nc1c(-c2ccccc2Cl)c(Cl)nc2nc(Br)nn12` [drawing 34], the pest or weed control at 100 g/ha worked out at 87%.
Take `CCC(C)CNc1c(-c2c(F)cc(F)cc2F)c(Cl)nc2nc(Cl)nn12` (stereo not drawn) [drawing 35]: the pest or weed control at 100 g/ha came to 100%.
On to `CCC(C)CNc1c(-c2c(F)cc(F)cc2F)c(Cl)nc2nc(Br)nn12` (stereo not drawn) [drawing 36], for which the pest or weed control at 100 g/ha turned out to be 94%.
Take `Clc1nc2nc(Cl)c(-c3ccccc3Cl)c(NCC3CC3)n2n1` [drawing 37]: the pest or weed control at 100 g/ha amounted to 97%.
Turning to `C[C@H](Nc1c(-c2c(F)cc(F)cc2F)c(Cl)nc2nc(Br)nn12)C(F)(F)F` [drawing 38], the pest or weed control at 100 g/ha is 100%.
Same read-out and setting: to `CC(C)CNc1c(-c2ccc(F)cc2F)c(Cl)nc2nc(Cl)nn12` [drawing 40] belongs 100%; to `C[C@H](Nc1c(-c2c(F)cccc2Cl)c(Cl)nc2nc(Cl)nn12)C(F)(F)F` [drawing 41], 100%; to `Fc1ccc(-c2c(Cl)nc3nc(Cl)nn3c2N[C@@H](Cl)C(F)(F)F)c(F)c1` [drawing 42], 100%.
Consider `Fc1cccc(Cl)c1-c1c(Cl)nc2nc(Cl)nn2c1N1CCCC1` [drawing 43], for which the pest or weed control at 100 g/ha amounted to 93%.
Same read-out and setting: the figure for `C=CCN(CC)c1c(-c2c(F)cccc2Cl)c(Cl)nc2nc(Cl)nn12` [drawing 44] is 95%.
For `CC(C)CNc1c(-c2c(F)cccc2Cl)c(Cl)nc2nc(Cl)nn12` [drawing 45], the pest or weed control at 100 g/ha turned out to be 100%.
Turning to `Fc1cccc(Cl)c1-c1c(Cl)nc2nc(Cl)nn2c1NCC1CC1` [drawing 46], the pest or weed control at 100 g/ha stood at 100%.
In the case of `COCCN(C)c1c(-c2c(F)cccc2Cl)c(Cl)nc2nc(Cl)nn12` [drawing 47], the pest or weed control at 100 g/ha is 100%.

Still in this series, the particulars now being: Podosphaera leucotricha, 240 h, protective, application rate 199 g/ha, evaluation 10 days after inoculation, read-out: Efficacy in %.
As to `CC1CCCN(c2c(-c3c(F)cc(F)cc3F)c(Cl)nc3nc(Cl)nn23)C1` (stereo not drawn) [drawing 39], the pest or weed control at 199 g/ha was determined as 94%.

Still in this series, the particulars now being: protective, application rate 100 g/ha, evaluation 10 days after inoculation.
The compound `C=C(C)CN(C)c1c(-c2c(F)cccc2Cl)c(Cl)nc2nc(Cl)nn12` [drawing 48] had an Efficacy in % of 100%.
